Source: ChEMBL document CHEMBL3885881, “DrugMatrix”

Species: Rattus norvegicus
Experiment: DrugMatrix - Regimen: Daily Repeat
Assay type: toxicity, organism-based, Sprague-Dawley
Set-up: regimen Daily Repeat, gender Male, age 6-8 weeks
Settings: in vivo, po, route oral GAVAGE, vehicle 100 % SALINE; for ABSOLUTE BASOPHIL / ABSOLUTE EOSINOPHIL / ABSOLUTE LYMPHOCYTE / ABSOLUTE MONOCYTE / ABSOLUTE SEGMENTED NEUTROPHIL / BASOPHIL / EOSINOPHIL / ERYTHROCYTE COUNT / HEMATOCRIT / HEMOGLOBIN / LEUKOCYTE COUNT / LYMPHOCYTE / MEAN CORPUSCULAR HEMOGLOBIN / MEAN CORPUSCULAR HEMOGLOBIN CONCENTRATION / MONOCYTE / NEUTROPHIL / NUCLEATED RED BLOOD CELLS / PLATELET COUNT: tissue Blood; for ALANINE AMINOTRANSFERASE / ALBUMIN / ALKALINE PHOSPHATASE / ASPARTATE AMINOTRANSFERASE / BLOOD UREA NITROGEN / CARBON DIOXIDE / CHOLESTEROL / CREATINE PHOSPHOKINASE / CREATININE / GLUCOSE / LACTATE DEHYDROGENASE / LIPASE / POTASSIUM / SODIUM / TOTAL BILIRUBIN / TOTAL PROTEIN / URIC ACID: tissue Plasma
[1] = 0 mg/kg, 72 h, dose level Control, time 3 day
[2] = 0 mg/kg, 120 h, dose level Control, time 5 day
[3] = 330 mg/kg, 72 h, dose level Low, time 3 day

**Q.** Which “ABSOLUTE BASOPHIL” value [1] does the source give for `Nc1nc2c(ncn2COCCO)c(=O)[nH]1` [ACYCLOVIR] here?
**A.** 0 CELLS/uL

**Q.** What about the “ABSOLUTE EOSINOPHIL” value [1] of the same compound?
**A.** 37 CELLS/uL

**Q.** What about the “ABSOLUTE LYMPHOCYTE” value [1] of the same compound?
**A.** 12359.33 CELLS/uL

**Q.** What about the “ABSOLUTE MONOCYTE” value [1] of the same compound?
**A.** 122.67 CELLS/uL

**Q.** What about the “ABSOLUTE SEGMENTED NEUTROPHIL” value [1] of the same compound?
**A.** 847.67 CELLS/uL

**Q.** And the BASOPHIL [1]?
**A.** 0%

**Q.** What about the EOSINOPHIL [1] of the same compound?
**A.** 0.33%

**Q.** And the “ERYTHROCYTE COUNT” value [1]?
**A.** 5.75 x10E6/uL

**Q.** And the HEMATOCRIT [1]?
**A.** 36.08%

**Q.** And the HEMOGLOBIN [1]?
**A.** 14.07 G/DL

**Q.** And the “LEUKOCYTE COUNT” value [1]?
**A.** 13.37 x10E3/uL

**Q.** And the LYMPHOCYTE [1]?
**A.** 92.5%

**Q.** What about the “MEAN CORPUSCULAR HEMOGLOBIN” value [1] of the same compound?
**A.** 24.47 pg

**Q.** What about the “MEAN CORPUSCULAR HEMOGLOBIN CONCENTRATION” value [1] of the same compound?
**A.** 38.98 G/DL

**Q.** And the MONOCYTE [1]?
**A.** 1%

**Q.** And the NEUTROPHIL [1]?
**A.** 6.17%

**Q.** What about the “NUCLEATED RED BLOOD CELLS” value [1] of the same compound?
**A.** 0.17 /100WBC

**Q.** What about the “PLATELET COUNT” value [1] of the same compound?
**A.** 1202.17 x10E3/uL

**Q.** And the “ALANINE AMINOTRANSFERASE” value [1]?
**A.** 50.67 u/L

**Q.** What about the ALBUMIN [1] of the same compound?
**A.** 4.13 G/DL

**Q.** What about the “ALKALINE PHOSPHATASE” value [1] of the same compound?
**A.** 356.33 u/L

**Q.** What about the “ASPARTATE AMINOTRANSFERASE” value [1] of the same compound?
**A.** 78.17 u/L

**Q.** What about the “BLOOD UREA NITROGEN” value [1] of the same compound?
**A.** 14.17 mg/dL

**Q.** What about the “CARBON DIOXIDE” value [1] of the same compound?
**A.** 31.33 mmol/L

**Q.** And the CHOLESTEROL [1]?
**A.** 76.5 mg/dL

**Q.** And the “CREATINE PHOSPHOKINASE” value [1]?
**A.** 248.33 u/L

**Q.** What about the CREATININE [1] of the same compound?
**A.** 0.2 mg/dL

**Q.** What about the GLUCOSE [1] of the same compound?
**A.** 144 mg/dL

**Q.** What about the “LACTATE DEHYDROGENASE” value [1] of the same compound?
**A.** 107 u/L

**Q.** And the LIPASE [1]?
**A.** 9.83 u/L

**Q.** What about the POTASSIUM [1] of the same compound?
**A.** 6.75 MEQ/L

**Q.** What about the SODIUM [1] of the same compound?
**A.** 142 MEQ/L

**Q.** What about the “TOTAL BILIRUBIN” value [1] of the same compound?
**A.** 0.18 mg/dL

**Q.** And the “TOTAL PROTEIN” value [1]?
**A.** 5.98 G/DL

**Q.** And the “URIC ACID” value [1]?
**A.** 1.42 mg/dL

**Q.** What about the “ABSOLUTE BASOPHIL” value [2] of the same compound?
**A.** 0 CELLS/uL

**Q.** What about the “ABSOLUTE EOSINOPHIL” value [2] of the same compound?
**A.** 0 CELLS/uL

**Q.** What about the “ABSOLUTE LYMPHOCYTE” value [2] of the same compound?
**A.** 8681.17 CELLS/uL

**Q.** And the “ABSOLUTE MONOCYTE” value [2]?
**A.** 79.83 CELLS/uL

**Q.** And the “ABSOLUTE SEGMENTED NEUTROPHIL” value [2]?
**A.** 689 CELLS/uL

**Q.** What about the BASOPHIL [2] of the same compound?
**A.** 0%

**Q.** What about the EOSINOPHIL [2] of the same compound?
**A.** 0%

**Q.** And the “ERYTHROCYTE COUNT” value [2]?
**A.** 5.49 x10E6/uL

**Q.** What about the HEMATOCRIT [2] of the same compound?
**A.** 33.55%

**Q.** And the HEMOGLOBIN [2]?
**A.** 13.1 G/DL

**Q.** What about the “LEUKOCYTE COUNT” value [2] of the same compound?
**A.** 9.45 x10E3/uL

**Q.** What about the LYMPHOCYTE [2] of the same compound?
**A.** 92.33%

**Q.** And the “MEAN CORPUSCULAR HEMOGLOBIN” value [2]?
**A.** 23.92 pg

**Q.** What about the “MEAN CORPUSCULAR HEMOGLOBIN CONCENTRATION” value [2] of the same compound?
**A.** 39.07 G/DL

**Q.** And the MONOCYTE [2]?
**A.** 0.67%

**Q.** And the NEUTROPHIL [2]?
**A.** 7%

**Q.** What about the “NUCLEATED RED BLOOD CELLS” value [2] of the same compound?
**A.** 0.17 /100WBC

**Q.** And the “PLATELET COUNT” value [2]?
**A.** 1001.17 x10E3/uL

**Q.** And the “ALANINE AMINOTRANSFERASE” value [2]?
**A.** 49.33 u/L

**Q.** And the ALBUMIN [2]?
**A.** 4.07 G/DL

**Q.** What about the “ALKALINE PHOSPHATASE” value [2] of the same compound?
**A.** 300.33 u/L

**Q.** What about the “ASPARTATE AMINOTRANSFERASE” value [2] of the same compound?
**A.** 83.5 u/L

**Q.** And the “BLOOD UREA NITROGEN” value [2]?
**A.** 16 mg/dL

**Q.** And the “CARBON DIOXIDE” value [2]?
**A.** 29.67 mmol/L

**Q.** And the CHOLESTEROL [2]?
**A.** 74.33 mg/dL

**Q.** What about the “CREATINE PHOSPHOKINASE” value [2] of the same compound?
**A.** 489.67 u/L

**Q.** What about the CREATININE [2] of the same compound?
**A.** 0.35 mg/dL

**Q.** And the GLUCOSE [2]?
**A.** 151 mg/dL

**Q.** What about the “LACTATE DEHYDROGENASE” value [2] of the same compound?
**A.** 133.67 u/L

**Q.** What about the LIPASE [2] of the same compound?
**A.** 11.17 u/L

**Q.** And the POTASSIUM [2]?
**A.** 5.5 MEQ/L

**Q.** And the SODIUM [2]?
**A.** 145.7 MEQ/L

**Q.** And the “TOTAL BILIRUBIN” value [2]?
**A.** 0.2 mg/dL

**Q.** What about the “TOTAL PROTEIN” value [2] of the same compound?
**A.** 6.05 G/DL

**Q.** And the “URIC ACID” value [2]?
**A.** 0.68 mg/dL

**Q.** And the “ABSOLUTE BASOPHIL” value [3]?
**A.** 0 CELLS/uL

**Q.** What about the “ABSOLUTE EOSINOPHIL” value [3] of the same compound?
**A.** 0 CELLS/uL

**Q.** What about the “ABSOLUTE LYMPHOCYTE” value [3] of the same compound?
**A.** 14421.67 CELLS/uL

**Q.** And the “ABSOLUTE MONOCYTE” value [3]?
**A.** 118.67 CELLS/uL

**Q.** What about the “ABSOLUTE SEGMENTED NEUTROPHIL” value [3] of the same compound?
**A.** 559.67 CELLS/uL

**Q.** And the BASOPHIL [3]?
**A.** 0%

**Q.** And the EOSINOPHIL [3]?
**A.** 0%

**Q.** And the “ERYTHROCYTE COUNT” value [3]?
**A.** 5.8 x10E6/uL

**Q.** And the HEMATOCRIT [3]?
**A.** 35.43%

**Q.** What about the HEMOGLOBIN [3] of the same compound?
**A.** 13.97 G/DL

**Q.** What about the “LEUKOCYTE COUNT” value [3] of the same compound?
**A.** 15.1 x10E3/uL

**Q.** And the LYMPHOCYTE [3]?
**A.** 95%

**Q.** And the “MEAN CORPUSCULAR HEMOGLOBIN” value [3]?
**A.** 24.1 pg

**Q.** And the “MEAN CORPUSCULAR HEMOGLOBIN CONCENTRATION” value [3]?
**A.** 39.4 G/DL

**Q.** What about the MONOCYTE [3] of the same compound?
**A.** 0.67%

**Q.** And the NEUTROPHIL [3]?
**A.** 4.33%

**Q.** And the “NUCLEATED RED BLOOD CELLS” value [3]?
**A.** 0 /100WBC

**Q.** What about the “PLATELET COUNT” value [3] of the same compound?
**A.** 1133.33 x10E3/uL

**Q.** What about the “ALANINE AMINOTRANSFERASE” value [3] of the same compound?
**A.** 50 u/L

**Q.** And the ALBUMIN [3]?
**A.** 4.3 G/DL

**Q.** What about the “ALKALINE PHOSPHATASE” value [3] of the same compound?
**A.** 334 u/L

**Q.** And the “ASPARTATE AMINOTRANSFERASE” value [3]?
**A.** 88.67 u/L

**Q.** What about the “BLOOD UREA NITROGEN” value [3] of the same compound?
**A.** 17.33 mg/dL

**Q.** And the “CARBON DIOXIDE” value [3]?
**A.** 25.67 mmol/L

**Q.** And the CHOLESTEROL [3]?
**A.** 70 mg/dL

**Q.** What about the “CREATINE PHOSPHOKINASE” value [3] of the same compound?
**A.** 328.33 u/L

**Q.** And the CREATININE [3]?
**A.** 0.34 mg/dL

**Q.** What about the GLUCOSE [3] of the same compound?
**A.** 183 mg/dL

**Q.** And the “LACTATE DEHYDROGENASE” value [3]?
**A.** 177.67 u/L

**Q.** And the LIPASE [3]?
**A.** 10.33 u/L

**Q.** And the POTASSIUM [3]?
**A.** 5.7 MEQ/L

**Q.** And the SODIUM [3]?
**A.** 144.1 MEQ/L

**Q.** And the “TOTAL BILIRUBIN” value [3]?
**A.** 0.13 mg/dL

**Q.** And the “TOTAL PROTEIN” value [3]?
**A.** 6.17 G/DL

**Q.** And the “URIC ACID” value [3]?
**A.** 2.2 mg/dL
